Experimental data from patent US20120108557A1, “FLUOROQUINOLONE DERIVATIVES FOR OPHTHALMIC APPLICATIONS” (ALCON RESEARCH, LTD., priority 2008, published 2012).

Legend:
in vitro = conditions: for Papp at 5 h, 100 μMole / MEAN LAG TIME: female, New Zealand Albino, rabbit; for MEAN LAG TIME: 100 μMole
Protocol: The procedure used is summarized below.
Female New Zealand Albino rabbits were sacrificed by first anaesthetizing with ketamine (30 mg/Kg) and xylazine (6 mg/Kg) followed by an injection of an overdose of […]* (sodium pentobarbital, 1 ml of a 26% solution) into the marginal ear vein. The intact eyes, along with the lids and conjunctival sacs were then enucleated and immediately stored in about 70 ml of fresh BSS PLUS® irrigation solution saturated with O2/CO2 (95:5).
To accomplish this, the exposed cornea of the enucleated eye was carefully placed on a corneal holder, which maintained the cornea curvature and held the eye in place. Various tissues of the eye were dissected leaving the cornea, a small ring of scleral tissue, and the palpebral conjunctiva. The conjunctival and scleral tissue served as a gasket and permitted the cornea to be suspended within the corneal ring in the center of the perfusion chamber. The chamber was jacketed to maintain the cornea and the perfusion solution at 35° C. The corneal holder and chamber were made from acrylic plastic at the University of Iowa, Iowa City, Iowa.
The mounted cornea was clamped between the two cylindrical compartments of the perfusion chamber and 7.5 mls of BSS PLUS® irrigating solution was placed in the receiving (endothelial) side of the chamber with stirring and bubbling of the O2/CO2 (95:5) mixture. Then, 7 mls of the fluoroquinolone dissolved in BSS PLUS® irrigating solution at a concentration of 100 μMole (this is approximately 4 mg/100 mL) was added to the donor (epithelial) side of the chamber also with stirring and bubbling of the O2/CO2 (95:5) mixture. The difference in volume ensured that the cornea would not buckle during the course of the experiment.
Samples (150 μL) were withdrawn from the receiving chamber every 30 minutes over a five hour period, and an equal volume of irrigating solution was immediately added to the receiving chamber to maintain a constant volume. The concentration of fluoroquinolones in the samples was determined using reverse-phase HPLC. […] Mixtures of acetonitrile and 31 mM phosphoric acid/sodium phosphate buffer at pH=3 were the mobile phase. The mobile phase (acetonitrile:phosphate buffer v/v) and UV detection wavelengths for each of the fluoroquinolones was determined beforehand. […] After each permeability experiment, the cornea was trimmed of excess scleral tissue and conjunctiva, weighed and dried overnight over phosphorus pentoxide in a vacuum desiccator. It was then reweighed in order to determine the hydration level. […] If the cornea is damaged in any way the hydration level rises. Data from corneas with hydration levels over 83% are discarded.
The rate of drug accumulation in the receiving (endothelial) chamber, and the apparent Permeability Coefficients (Papp) of the fluoroquinolones were then calculated as follows: […]

microorganisms = experiment: In vitro antimicrobial activity test, whole panel of test organisms; type: cell-based; conditions: across the test organisms of TABLE 3
Protocol: The activity of the compounds of the present invention was evaluated using an in vitro assay. Microorganisms were prepared from growth on agar media, in broth culture, or from thawed cryopreserved cultures. Fungal cultures were filtered to remove mycelial elements.
Using Mueller Hinton II Broth, 0.9% saline or other appropriate media, a suspension of each culture was prepared and adjusted to a turbidity equivalent to that of a 0.5 McFarland Standard. (Cultures adjusted to the 0.5 McFarland Standard generally contain approximately 1.0×10^8 CFU/mL). The adjusted suspension for each culture was diluted 1:10 in the appropriate media so that the inoculum concentration approximates 1.0×10^7 CFU/mL.
The antimicrobial agent to be tested was weighed and diluted with a volume of sterile distilled water calculated to yield the necessary starting concentration. Serial 1:2 dilutions of the antimicrobial agent in sterile distilled water were prepared (approximately 10-12 test concentrations comprise a reasonable experimental range). A known amount of each antimicrobial dilution was combined with an aliquot of agar medium calculated to yield the desired final antimicrobial test concentration and dispensed onto plates.
The amount of antimicrobial agent to be weighed was determined using the following equation: […]
Antimicrobial stock solutions were prepared at concentrations 5-10 times the highest concentration to be tested (routinely 1024 μg/mL). […] The stock solution was diluted to appropriate concentration using sterile water to form a working solution. The working solution was diluted two-fold, in sterile water, until the desired concentration is obtained.
Mueller Hinton II agar was prepared as described by the manufacturer. Mueller Hinton II agar may be supplemented with 5% defibrinated sheep blood for testing streptococci. Agar was added to the serially diluted antimicrobial solution in each container. The solutions were mixed thoroughly and poured into petri dishes (about 25 mL/plate). The pH of the agar at 25° C. should be between 7.2 and 7.4. […]

Structure (SMILES)	Papp at 5 h, 100 μMole (in vitro)	MEAN LAG TIME (in vitro)	permeability and lag characteristics among the compounds studied (in words) (in vitro)	antimicrobial activity compared to moxifloxacin (in words) (microorganisms)
Nc1c(F)c(N2CC3CCCNC3C2)c(F)c2c1c(=O)c(C(=O)O)cn2C1CC1 [Compound 3 (S,S)]	13.6 ×10⁻⁶ cm/s	45 min		
Nc1c(F)c(N2CC3CCCNC3C2)c(F)c2c1c(=O)c(C(=O)O)cn2C1CC1 (racemic) [Compound 3 (racemic)]	16.6 ×10⁻⁶ cm/s	38 min		
CN1CCCC2CN(c3c(F)cc4c(=O)c(C(=O)O)cn(C5CC5)c4c3F)CC21 (stereo not drawn) [Compound 1]	31.1 ×10⁻⁶ cm/s	12 min	best permeability and lag characteristics of the compounds studied	somewhat better antimicrobial activity against certain microorganisms compared to moxifloxacin, and performed comparably when taken as a whole
CN1CCCC2CN(c3cc4c(cc3F)c(=O)c(C(=O)O)cn4C3CC3)CC21 (stereo not drawn) [Compound 2]	20.5 ×10⁻⁶ cm/s	27 min	best permeability and lag characteristics of the compounds studied	generally did not perform as well as moxifloxacin
